Patent publication US20110184188A1, “Insecticidal Benzenedicarboxamide Derivative” (priority 2008, published 2011)

Test: logP(acid) by reverse phase (C18) chromatography at pH 2.3
Assay type: physicochemical
Conditions: reverse phase (C18) chromatography at pH 2.3

| Compound | logP (acid) |
| --- | --- |
| COc1ccc(Br)c(C(=O)Nc2ccc(Cn3nc(C(F)(F)F)cc3C(F)(F)F)nc2C)c1C(=O)N[C@@H](C)C[S+](C)[O-] (stereo partly shown) [11-17] | logP (acid) 2.6 |
| COc1ccc(Br)c(C(=O)Nc2ccc(Cn3nc(C(F)(F)C(F)(F)F)cc3C(F)(F)F)nc2C)c1C(=O)N[C@@H](C)CSC [11-19] | logP (acid) 4.02 |
| COc1ccc(Br)c(C(=O)Nc2ccc(Cn3nc(C(F)(F)C(F)(F)F)cc3C(F)(F)F)nc2C)c1C(=O)N[C@@H](C)C[S+](C)[O-] (stereo partly shown) [11-20] | logP (acid) 2.90 |
| CSC[C@H](C)NC(=O)c1c(Cl)ccc(Cl)c1C(=O)Nc1ccc(Cn2nc(C(F)(F)F)cc2C(F)(F)F)cc1C [11-21] | logP (acid) 3.88 |
| Cc1cc(Cn2nc(C(F)(F)F)cc2C(F)(F)F)ccc1NC(=O)c1c(Cl)ccc(Cl)c1C(=O)N[C@@H](C)CS(C)(=O)=O [11-23] | logP (acid) 3.40 |
| CSC[C@H](C)NC(=O)c1c(Cl)ccc(Cl)c1C(=O)Nc1ccc(Cn2nc(C(F)(F)F)nc2C(F)(F)F)cc1C [11-26] | logP (acid) 4.25 |
| CSC[C@H](C)NC(=O)c1c(Cl)ccc(Cl)c1C(=O)Nc1ccc(Cn2nc(C(F)(F)C(F)(F)F)nc2C(F)(F)F)cc1C [11-27] | logP (acid) 4.51 |
| Cc1cc(Cn2nc(C(F)(F)C(F)(F)F)nc2C(F)(F)F)ccc1NC(=O)c1c(Cl)ccc(Cl)c1C(=O)N[C@@H](C)CS(C)(=O)=O [11-29] | logP (acid) 3.50 |
| CSC[C@H](C)NC(=O)c1c(Cl)ccc(Br)c1C(=O)Nc1ccc(Cn2nc(C(F)(F)C(F)(F)F)nc2C(F)(F)F)cc1C [11-30] | logP (acid) 4.28 |
| Cc1cc(Cn2nc(C(F)(F)C(F)(F)F)nc2C(F)(F)F)ccc1NC(=O)c1c(Br)ccc(Cl)c1C(=O)N[C@@H](C)CS(C)(=O)=O [11-32] | logP (acid) 3.47 |
| COc1ccc(Br)c(C(=O)Nc2ccc(Cn3nc(C(F)(F)C(F)(F)F)nc3C(F)(F)F)cc2C)c1C(=O)N[C@@H](C)CSC [11-38] | logP (acid) 4.14 |
| CNC(=O)c1cc(Cl)cc(Cl)c1C(=O)Nc1ccc(Cn2nc(C(F)(F)F)cc2C(F)(F)F)cc1C [12-1] | logP (acid) 3.69 |
| CNC(=O)c1cc(Cl)cc(Cl)c1C(=O)Nc1ccc(Cn2nc(C(F)(F)F)nc2C(F)(F)F)cc1C [12-4] | logP (acid) 3.39 |
| CSC[C@H](C)NC(=O)c1c(Cl)cccc1C(=O)Nc1ccc(Cn2nc(C(F)F)c(Cl)c2C(F)F)nc1C [13-27] | 3.21 |
| CSC[C@H](C)NC(=O)c1c(Cl)cccc1C(=O)Nc1ccc(Cn2nc(C(F)F)c(Br)c2C(F)F)nc1C [13-28] | 3.20 |
| CSC[C@H](C)NC(=O)c1c(Cl)cccc1C(=O)Nc1ccc(Cn2cc(C(F)(F)C(F)(F)F)c(C(F)(F)C(F)(F)F)n2)nc1C [13-50] | 4.27 |
| Cc1nc(Cn2nc(C(F)(F)C(F)(F)F)cc2C(F)(F)F)ccc1NC(=O)c1cccc(Cl)c1C(=O)N[C@@H](C)C[S+](C)[O-] (stereo partly shown) [13-70] | 2.86 |
| Cc1nc(Cn2nc(C(F)F)c(Cl)c2C(F)F)ccc1NC(=O)c1cccc(Cl)c1C(=O)N[C@@H](C)CS(C)(=O)=O [13-76] | 2.48 |

| Compound | logP (acid) |
| --- | --- |
| Cc1nc(Cn2cc(C(F)(F)C(F)(F)F)c(C(F)(F)C(F)(F)F)n2)ccc1NC(=O)c1cccc(Cl)c1C(=O)N[C@@H](C)CS(C)(=O)=O [13-110] | logP (acid) 3.46 |
| CSC[C@H](C)NC(=O)c1c(Br)cccc1C(=O)Nc1ccc(Cn2nc(C(F)F)c(Cl)c2C(F)F)nc1C [13-126] | logP (acid) 3.28 |
| CSC[C@H](C)NC(=O)c1c(Br)cccc1C(=O)Nc1ccc(Cn2cc(C(F)(F)C(F)(F)F)c(C(F)(F)C(F)(F)F)n2)nc1C [13-134] | logP (acid) 4.35 |
| CSC[C@H](C)NC(=O)c1c(Br)cccc1C(=O)Nc1ccc(Cn2nc(C(F)(F)C(F)(F)F)cc2C(F)(F)F)nc1C [13-135] | logP (acid) 4.30 |
| Cc1nc(Cn2nc(C(F)(F)C(F)(F)C(F)(F)F)cc2C(F)(F)F)ccc1NC(=O)c1cccc(Br)c1C(=O)N[C@@H](C)C[S+](C)[O-] (stereo partly shown) [13-136] | logP (acid) 3.08 |
| Cc1nc(Cn2cc(C(F)(F)C(F)(F)F)c(C(F)(F)C(F)(F)F)n2)ccc1NC(=O)c1cccc(Br)c1C(=O)N[C@@H](C)C[S+](C)[O-] (stereo partly shown) [13-138] | logP (acid) 3.03 |
| Cc1nc(Cn2nc(C(F)(F)C(F)(F)C(F)(F)F)cc2C(F)(F)F)ccc1NC(=O)c1cccc(Br)c1C(=O)N[C@@H](C)CS(C)(=O)=O [13-139] | logP (acid) 3.56 |
| Cc1nc(Cn2cc(C(F)(F)C(F)(F)F)c(C(F)(F)C(F)(F)F)n2)ccc1NC(=O)c1cccc(Br)c1C(=O)N[C@@H](C)CS(C)(=O)=O [13-141] | logP (acid) 3.52 |
| CSC[C@H](C)NC(=O)c1c(I)cccc1C(=O)Nc1ccc(Cn2nc(C(F)F)c(Cl)c2C(F)F)nc1C [13-145] | logP (acid) 3.34 |
| CSC[C@H](C)NC(=O)c1c(I)cccc1C(=O)Nc1ccc(Cn2cc(C(F)(F)C(F)(F)F)c(C(F)(F)C(F)(F)F)n2)nc1C [13-156] | logP (acid) 4.46 |
| CSC[C@H](C)NC(=O)c1c(I)cccc1C(=O)Nc1ccc(Cn2nc(C(F)(F)C(F)(F)F)cc2C(F)(F)F)nc1C [13-157] | logP (acid) 4.39 |
| CSC[C@H](C)NC(=O)c1c(Cl)cccc1C(=O)Nc1cnc(Cn2nc(C(F)(F)F)cc2C(F)(F)F)cc1C [13-175] | logP (acid) 3.52 |
| CSC[C@H](C)NC(=O)c1c(Br)cccc1C(=O)Nc1cnc(Cn2nc(C(F)(F)F)cc2C(F)(F)F)cc1C [13-178] | logP (acid) 3.59 |
| CSC[C@H](C)NC(=O)c1c(I)cccc1C(=O)Nc1cnc(Cn2nc(C(F)(F)F)cc2C(F)(F)F)cc1C [13-181] | logP (acid) 3.67 |
| Cc1nc(Cn2nc(C(F)(F)C(F)(F)F)cc2C(F)(F)F)ccc1NC(=O)c1cccc(Cl)c1C(=O)N[C@@H](C)CS(C)(=O)=O [13-186] | logP (acid) 3.12 |
| Cc1nc(Cn2nc(C(F)(F)C(F)(F)F)cc2C(F)(F)F)ccc1NC(=O)c1cccc(Br)c1C(=O)N[C@@H](C)CS(C)(=O)=O [13-187] | logP (acid) 3.19 |
| Cc1nc(Cn2nc(C(F)(F)C(F)(F)F)cc2C(F)(F)F)ccc1NC(=O)c1cccc(I)c1C(=O)N[C@@H](C)CS(C)(=O)=O [13-189] | logP (acid) 3.27 |

Same assay, conditions: reverse phase (C18) chromatography, pH 2.3

| Compound | logP (acid) |
| --- | --- |
| Cc1cc(Cn2nc(C(F)(F)F)cc2C(F)(F)F)ccc1NC(=O)c1cccc(Cl)c1C(=O)NC(C)CN(C)C (stereo not shown) [13-191] | logP (acid) 1.81 |
| Cc1cc(Cn2nc(C(F)(F)F)cc2C(F)(F)F)ccc1NC(=O)c1c(Cl)cccc1C(=O)NCC#N [13-198] | logP (acid) 3.32 |
| CSC[C@H](C)NC(=O)c1c(Cl)cccc1C(=O)Nc1ccc(Cn2nc(C(F)(F)F)cc2N)cc1C [13-200] | logP (acid) 2.31 |
| CCOC(=O)c1cn(Cc2ccc(NC(=O)c3cccc(Cl)c3C(=O)N[C@@H](C)CSC)c(C)c2)nc1C(F)(F)F [13-202] | logP (acid) 3.43 |
| CSC[C@H](C)NC(=O)c1c(Cl)cccc1C(=O)Nc1ccc(Cn2cc(C(=O)C(F)(F)C(F)(F)F)c(C(F)(F)C(F)(F)F)n2)cc1C [13-205] | logP (acid) 4.46 |
| CSC[C@H](C)NC(=O)c1c(Cl)cccc1C(=O)Nc1ccc(Cn2cc(C(=O)N(C)C)c(C(F)(F)F)n2)cc1C [13-207] | logP (acid) 2.56 |
| CSC[C@H](C)NC(=O)c1c(Cl)cccc1C(=O)Nc1ccc(Cn2cc(C(=O)NC(C)C(F)(F)F)c(C(F)(F)F)n2)cc1C (stereo partly shown) [13-208] | logP (acid) 3.25 |
| CSC[C@H](C)NC(=O)c1c(Cl)cccc1C(=O)Nc1ccc(Cn2cc(C(=O)NC(C)C)c(C(F)(F)F)n2)cc1C [13-209] | logP (acid) 2.87 |
| CSC[C@H](C)NC(=O)c1c(Cl)cccc1C(=O)Nc1ccc(Cn2cc(C(=O)NCC(F)(F)F)c(C(F)(F)F)n2)cc1C [13-210] | logP (acid) 3.05 |
| CSC[C@H](C)NC(=O)c1c(Cl)cccc1C(=O)Nc1ccc(Cn2cc(C(=O)Nc3cc(C(F)(F)F)cc(C(F)(F)F)c3)c(C(F)(F)F)n2)cc1C [13-211] | logP (acid) 4.55 |
| CSC[C@H](C)NC(=O)c1c(Cl)cccc1C(=O)Nc1ccc(Cn2nc(C(F)(F)C(F)(F)F)cc2C(=O)C(F)(F)F)cc1C [13-220] | logP (acid) 3.52 |
| CSC[C@H](C)NC(=O)c1c(Cl)cccc1C(=O)Nc1ccc(Nc2c(C(F)(F)F)c(C(F)(F)C(F)(F)F)nn2C)nc1C [13-226] | logP (acid) 3.64 |
| CSC[C@H](C)NC(=O)c1c(Cl)cccc1C(=O)Nc1ccc(Nc2c(SC(F)(F)F)c(C(F)(F)F)nn2-c2c(Cl)cc(C(F)(F)F)cc2Cl)nc1C [13-227] | logP (acid) 5.09 |
| CSC[C@H](C)NC(=O)c1c(Cl)cccc1C(=O)Nc1ccc(Oc2cc(C(F)(F)F)n(C)n2)nc1C [13-228] | logP (acid) 2.98 |
| CSC[C@H](C)NC(=O)c1c(Cl)cccc1C(=O)Nc1ccc(C(=O)c2cc(C(F)(F)C(F)(F)F)n[nH]2)cc1C [13-229] | logP (acid) 3.4 |
| CSC[C@H](C)NC(=O)c1c(Cl)cccc1C(=O)Nc1ccc(Cc2cc(C(F)(F)C(F)(F)F)n[nH]2)cc1C [13-230] | logP (acid) 3.29 |
| CSC[C@H](C)NC(=O)c1c(Cl)cccc1C(=O)Nc1ccc(Cn2nc(C(F)(F)F)cc2C(F)(F)F)nc1Cl [13-232] | logP (acid) 3.97 |
| CSC[C@H](C)NC(=O)c1cc(Cl)c(Cl)cc1C(=O)Nc1ccc(Cn2nc(C(F)(F)F)cc2C(F)(F)F)nc1C [13-238] | logP (acid) 3.74 |
| CSC[C@H](C)NC(=O)c1c(I)cccc1C(=O)Nc1ccc(Cn2nc(C(F)(F)F)cc2C(F)(F)C(F)(F)F)nc1C [13-239] | logP (acid) 4.27 |
| Cc1nc(Cn2nc(C(F)(F)F)cc2C(F)(F)F)ccc1NC(=O)c1c(Cl)cccc1C(=O)NC1CCS(=O)(=O)C1 (stereo not shown) [13-276] | logP (acid) 3.28 |
| CCC(CC#N)NC(=O)c1c(Cl)cccc1C(=O)Nc1ccc(Cn2nc(C(F)(F)F)cc2C(F)(F)F)cc1C (stereo not shown) [13-277] | logP (acid) 3.42 |
| Cc1nc(Cn2nc(C(F)(F)F)cc2C(F)(F)F)ccc1NC(=O)c1c(Cl)cccc1C(=O)NC1=NN(c2ccccc2)C(=O)C1 [13-281] | logP (acid) 4.41 |
| Cc1nc(Cn2nc(C(F)(F)F)cc2C(F)(F)F)ccc1NC(=O)c1c(Cl)cccc1C(=O)NC(C)CN(C)C (stereo not shown) [13-283] | logP (acid) 2.4 |
